From PMC7540173 (Chemistry (Weinheim an Der Bergstrasse, Germany), 2020)

Tests used:
human αvβ3 integrin = human αvβ3 integrin (Homo sapiens, UniProt P05106+P06756); test: ELISA-like solid-phase integrin binding assay
human α5β1 integrin = human α5β1 integrin (Homo sapiens, UniProt P05556+P08648); test: ELISA-like solid-phase integrin binding assay
human α5β1 integrin, sequence (P08648 42-995 limits assumed): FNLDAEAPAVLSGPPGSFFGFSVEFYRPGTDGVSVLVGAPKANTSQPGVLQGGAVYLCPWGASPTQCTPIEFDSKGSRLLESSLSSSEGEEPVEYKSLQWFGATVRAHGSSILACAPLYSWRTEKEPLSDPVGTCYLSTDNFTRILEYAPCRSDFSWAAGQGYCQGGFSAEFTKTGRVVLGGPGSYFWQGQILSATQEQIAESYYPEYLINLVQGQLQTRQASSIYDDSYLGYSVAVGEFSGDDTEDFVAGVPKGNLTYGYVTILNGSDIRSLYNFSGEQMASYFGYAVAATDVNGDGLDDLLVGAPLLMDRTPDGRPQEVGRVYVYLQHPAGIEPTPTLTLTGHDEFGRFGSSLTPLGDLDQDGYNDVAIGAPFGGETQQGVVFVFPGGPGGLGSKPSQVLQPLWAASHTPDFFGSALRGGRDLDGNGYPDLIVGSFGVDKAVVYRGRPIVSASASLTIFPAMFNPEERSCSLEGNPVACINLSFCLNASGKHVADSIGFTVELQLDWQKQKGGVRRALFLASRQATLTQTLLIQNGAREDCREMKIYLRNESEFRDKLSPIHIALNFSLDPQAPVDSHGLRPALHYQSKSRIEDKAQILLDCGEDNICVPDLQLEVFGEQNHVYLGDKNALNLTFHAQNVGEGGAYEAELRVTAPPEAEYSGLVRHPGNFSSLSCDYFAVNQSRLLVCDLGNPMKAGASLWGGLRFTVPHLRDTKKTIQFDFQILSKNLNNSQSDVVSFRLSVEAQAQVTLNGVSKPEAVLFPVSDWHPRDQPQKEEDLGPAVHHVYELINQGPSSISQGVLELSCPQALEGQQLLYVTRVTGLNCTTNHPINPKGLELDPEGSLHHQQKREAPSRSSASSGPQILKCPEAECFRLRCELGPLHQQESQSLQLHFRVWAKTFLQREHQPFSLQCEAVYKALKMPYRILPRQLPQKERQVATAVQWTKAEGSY
human α5β1 integrin, sequence (P05556 21-728 limits assumed): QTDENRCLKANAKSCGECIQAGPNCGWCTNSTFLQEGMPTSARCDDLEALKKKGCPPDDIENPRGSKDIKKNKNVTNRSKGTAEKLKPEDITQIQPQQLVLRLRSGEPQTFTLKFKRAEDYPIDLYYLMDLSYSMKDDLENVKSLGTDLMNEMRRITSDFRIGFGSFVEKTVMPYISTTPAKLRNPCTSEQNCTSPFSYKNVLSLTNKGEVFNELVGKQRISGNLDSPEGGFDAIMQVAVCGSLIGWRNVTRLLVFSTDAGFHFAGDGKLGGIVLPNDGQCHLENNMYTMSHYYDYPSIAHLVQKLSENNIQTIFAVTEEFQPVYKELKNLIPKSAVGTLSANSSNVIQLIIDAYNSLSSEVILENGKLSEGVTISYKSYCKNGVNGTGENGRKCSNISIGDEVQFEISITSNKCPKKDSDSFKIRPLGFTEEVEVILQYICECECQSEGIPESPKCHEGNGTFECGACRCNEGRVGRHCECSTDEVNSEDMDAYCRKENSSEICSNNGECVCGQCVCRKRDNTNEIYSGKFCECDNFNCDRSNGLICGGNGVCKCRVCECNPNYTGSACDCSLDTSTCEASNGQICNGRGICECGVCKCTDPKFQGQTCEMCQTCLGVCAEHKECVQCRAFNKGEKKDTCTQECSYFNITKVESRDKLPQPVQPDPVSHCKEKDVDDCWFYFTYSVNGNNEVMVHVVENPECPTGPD

human αvβ3 integrin, sequence (P06756 31-992 limits assumed): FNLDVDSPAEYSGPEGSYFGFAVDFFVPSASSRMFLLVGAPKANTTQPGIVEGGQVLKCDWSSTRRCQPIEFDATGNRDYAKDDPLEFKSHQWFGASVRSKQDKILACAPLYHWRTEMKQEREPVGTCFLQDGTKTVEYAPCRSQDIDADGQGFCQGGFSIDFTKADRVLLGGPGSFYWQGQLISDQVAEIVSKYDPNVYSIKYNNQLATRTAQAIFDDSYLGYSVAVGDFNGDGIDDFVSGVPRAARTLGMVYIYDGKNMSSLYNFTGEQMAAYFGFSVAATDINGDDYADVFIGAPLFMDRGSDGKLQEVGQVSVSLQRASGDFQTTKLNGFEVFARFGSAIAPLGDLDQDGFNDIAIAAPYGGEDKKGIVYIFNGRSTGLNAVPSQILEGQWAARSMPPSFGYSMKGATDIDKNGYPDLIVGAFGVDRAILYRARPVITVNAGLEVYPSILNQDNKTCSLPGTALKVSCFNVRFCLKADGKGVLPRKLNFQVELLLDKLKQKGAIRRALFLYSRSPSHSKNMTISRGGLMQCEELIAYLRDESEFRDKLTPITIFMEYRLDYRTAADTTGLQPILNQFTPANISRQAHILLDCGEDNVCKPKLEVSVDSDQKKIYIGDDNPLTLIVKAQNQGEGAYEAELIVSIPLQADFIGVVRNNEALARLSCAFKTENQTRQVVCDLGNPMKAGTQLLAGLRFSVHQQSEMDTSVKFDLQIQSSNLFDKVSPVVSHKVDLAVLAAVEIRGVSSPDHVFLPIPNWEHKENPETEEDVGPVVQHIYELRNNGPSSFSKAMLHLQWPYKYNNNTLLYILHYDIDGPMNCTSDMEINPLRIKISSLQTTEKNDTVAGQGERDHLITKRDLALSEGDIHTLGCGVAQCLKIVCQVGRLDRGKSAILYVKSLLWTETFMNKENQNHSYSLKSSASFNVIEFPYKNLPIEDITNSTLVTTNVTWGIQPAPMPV
human αvβ3 integrin, sequence (P05106 27-718 limits assumed): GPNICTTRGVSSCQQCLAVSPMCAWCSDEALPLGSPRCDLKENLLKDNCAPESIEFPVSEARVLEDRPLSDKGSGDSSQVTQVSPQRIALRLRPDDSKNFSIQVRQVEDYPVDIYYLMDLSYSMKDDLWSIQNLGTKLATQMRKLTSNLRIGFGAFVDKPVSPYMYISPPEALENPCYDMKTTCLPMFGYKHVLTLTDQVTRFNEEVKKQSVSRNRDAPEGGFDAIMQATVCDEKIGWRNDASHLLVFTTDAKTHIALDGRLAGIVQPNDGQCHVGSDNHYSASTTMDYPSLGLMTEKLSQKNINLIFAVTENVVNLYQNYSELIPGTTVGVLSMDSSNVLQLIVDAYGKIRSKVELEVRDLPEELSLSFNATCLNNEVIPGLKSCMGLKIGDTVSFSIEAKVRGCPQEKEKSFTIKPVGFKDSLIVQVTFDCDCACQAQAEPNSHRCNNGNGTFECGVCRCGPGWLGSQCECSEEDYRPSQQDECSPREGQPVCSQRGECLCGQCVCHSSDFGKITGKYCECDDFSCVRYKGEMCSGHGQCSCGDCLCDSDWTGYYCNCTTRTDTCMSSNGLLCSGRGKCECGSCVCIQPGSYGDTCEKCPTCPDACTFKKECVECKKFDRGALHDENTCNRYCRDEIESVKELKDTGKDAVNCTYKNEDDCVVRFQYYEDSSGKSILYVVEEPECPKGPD

Row | Compound | selectivity towards the integrin αVβ3 (over α5β1) (human αvβ3 integrin; ratio of IC50 α5β1 / αVβ3) | IC50 (human αvβ3 integrin) [nM] | IC50 (human α5β1 integrin) [nM] | decrease in the affinities compared to their unmethylated analogues (human αvβ3 integrin; N-methyl tryptophan derivatives vs 12 a–c)
1 | c(RGDW(7‐3Ptz^1(O))) [12 h] | ≈ 110 fold |  |  | 
2 | N#CC(C#N)=Cc1ccc2c(c1)Sc1cc3ccc1N2CCCCCC(=O)N[C@@H](CCCNC(=N)N)C(=O)NCC(=O)N[C@@H](CC(=O)O)C(=O)N[C@@H](C(N)=O)Cc1c[nH]c2c-3cccc12 [12 g, c(RGDw(7‐3Ptz^2(CH(CN)2))] |  | 961 ± 50 | > 10000 | 
3 | N=C(N)NCCC[C@@H]1NC(=O)CN2c3ccccc3Sc3cc(ccc32)-c2cccc3c(c[nH]c23)C[C@H](C(N)=O)NC(=O)[C@H](CC(=O)O)NC(=O)CNC1=O [12 d, c(RGDw(7‐3Ptz^1))] |  | 780 ± 170 | > 10000 | 
4 | CN1C(=O)[C@H](CC(=O)O)NC(=O)CNC(=O)[C@H](CCCNC(=N)N)NC(=O)CN2c3ccccc3Sc3cc(ccc32)-c2cccc3c(c[nH]c23)C[C@H]1C(N)=O [12 f, c(RGD(NMe)W(7‐3Ptz^1))] |  | 4520 ± 530 | > 10000 | 
5 | N=C(N)NCCC[C@@H]1NC(=O)CN2c3ccccc3Sc3cc(ccc32)-c2cccc3c(c[nH]c23)C[C@@H](C(N)=O)NC(=O)[C@H](CC(=O)O)NC(=O)CNC1=O [12 c, c(RGDW(7‐3Ptz^1))] |  | 310 ± 80 | 2220 ± 1040 | 
6 | N=C(N)NCCC[C@@H]1NC(=O)CCCCCN2c3ccccc3Sc3cc(ccc32)-c2cccc3c(c[nH]c23)C[C@@H](C(N)=O)NC(=O)[C@H](CC(=O)O)NC(=O)CNC1=O [12 a, c(RGDW(7‐3Ptz^2))] |  | 330 ± 40 |  | 
7 | CN1C(=O)[C@H](CC(=O)O)NC(=O)CNC(=O)[C@H](CCCNC(=N)N)NC(=O)CCCCCN2c3ccccc3Sc3cc(ccc32)-c2cccc3c(c[nH]c23)C[C@H]1C(N)=O [12 e, c(RGD(NMe)W(7‐3Ptz^2))] |  | 6550 ± 760 |  | 15–20 fold
8 | N=C(N)NCCC[C@@H]1NC(=O)CCCCCN2c3ccccc3Sc3cc(ccc32)-c2cccc3c(c[nH]c23)C[C@H](C(N)=O)NC(=O)[C@H](CC(=O)O)NC(=O)CNC1=O [12 b, c(RGDw(7‐3Ptz^2))] |  | 600 ± 110 | 5680 ± 1280 | 
